Results from ChEMBL document CHEMBL1201862, “PubChem BioAssay data set” (2004).
Each block holds one compound with its values, some of them ahead of it. The source made the active and inactive calls.

Legend:
[1] = antiviral protection against BTV-induced cell death – arbovirus, BSR cells, confirmation (AID 1250); type: functional;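 also: protection from viral cytopathic effect measured as cell viability by ATP luminescence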
[2] = target: T1, Alkaline phosphatase, tissue-nonspecific isozyme (Homo sapiens, UniProt P05186)
T1 sequence (P05186 whole entry): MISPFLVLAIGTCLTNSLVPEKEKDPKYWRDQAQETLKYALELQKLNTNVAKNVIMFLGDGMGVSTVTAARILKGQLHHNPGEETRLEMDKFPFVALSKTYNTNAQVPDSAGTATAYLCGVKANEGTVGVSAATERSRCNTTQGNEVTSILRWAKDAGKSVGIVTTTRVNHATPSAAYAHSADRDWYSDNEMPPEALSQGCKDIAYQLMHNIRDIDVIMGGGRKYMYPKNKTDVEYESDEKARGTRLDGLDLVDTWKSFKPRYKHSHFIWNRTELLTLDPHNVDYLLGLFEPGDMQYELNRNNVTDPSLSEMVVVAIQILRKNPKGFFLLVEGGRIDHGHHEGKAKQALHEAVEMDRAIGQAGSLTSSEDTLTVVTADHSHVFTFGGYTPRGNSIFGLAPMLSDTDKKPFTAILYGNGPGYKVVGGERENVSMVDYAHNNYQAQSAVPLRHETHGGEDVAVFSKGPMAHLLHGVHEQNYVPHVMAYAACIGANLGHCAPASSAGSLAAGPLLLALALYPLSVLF

[3] = target: T2, Neuropeptide Y receptor type 2 (Homo sapiens, UniProt P49146); type: functional, cell-based;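 also: HEK293 cells expressing the receptor and a CNG channel; stimulus was NPY near EC95 followed by isoproterenol to raise cAMP; antagonist potency measured as restoring cAMP signal that NPY suppresses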
T2 sequence (P49146 whole entry): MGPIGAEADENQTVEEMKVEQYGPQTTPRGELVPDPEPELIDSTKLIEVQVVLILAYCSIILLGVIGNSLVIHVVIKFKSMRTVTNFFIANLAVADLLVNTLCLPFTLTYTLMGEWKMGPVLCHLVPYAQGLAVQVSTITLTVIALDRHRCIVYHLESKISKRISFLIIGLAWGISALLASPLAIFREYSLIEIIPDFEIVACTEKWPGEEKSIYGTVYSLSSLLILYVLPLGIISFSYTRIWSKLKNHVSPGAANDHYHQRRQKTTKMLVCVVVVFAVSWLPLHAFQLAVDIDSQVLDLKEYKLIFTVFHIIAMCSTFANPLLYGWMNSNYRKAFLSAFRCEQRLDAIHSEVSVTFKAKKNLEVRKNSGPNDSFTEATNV

[4] = Luminescence Cell-Based Dose Confirmation HTS to Identify Inhibitors of Platelet Dense Granule Release. [Related pubchem assays: 1663 (Primary HTS), 1678 (Summary of Project)]; type: functional
[5] = target: T3, Apoptotic protease-activating factor 1 (Homo sapiens, UniProt O14727); type: functional
T3 sequence (O14727 whole entry): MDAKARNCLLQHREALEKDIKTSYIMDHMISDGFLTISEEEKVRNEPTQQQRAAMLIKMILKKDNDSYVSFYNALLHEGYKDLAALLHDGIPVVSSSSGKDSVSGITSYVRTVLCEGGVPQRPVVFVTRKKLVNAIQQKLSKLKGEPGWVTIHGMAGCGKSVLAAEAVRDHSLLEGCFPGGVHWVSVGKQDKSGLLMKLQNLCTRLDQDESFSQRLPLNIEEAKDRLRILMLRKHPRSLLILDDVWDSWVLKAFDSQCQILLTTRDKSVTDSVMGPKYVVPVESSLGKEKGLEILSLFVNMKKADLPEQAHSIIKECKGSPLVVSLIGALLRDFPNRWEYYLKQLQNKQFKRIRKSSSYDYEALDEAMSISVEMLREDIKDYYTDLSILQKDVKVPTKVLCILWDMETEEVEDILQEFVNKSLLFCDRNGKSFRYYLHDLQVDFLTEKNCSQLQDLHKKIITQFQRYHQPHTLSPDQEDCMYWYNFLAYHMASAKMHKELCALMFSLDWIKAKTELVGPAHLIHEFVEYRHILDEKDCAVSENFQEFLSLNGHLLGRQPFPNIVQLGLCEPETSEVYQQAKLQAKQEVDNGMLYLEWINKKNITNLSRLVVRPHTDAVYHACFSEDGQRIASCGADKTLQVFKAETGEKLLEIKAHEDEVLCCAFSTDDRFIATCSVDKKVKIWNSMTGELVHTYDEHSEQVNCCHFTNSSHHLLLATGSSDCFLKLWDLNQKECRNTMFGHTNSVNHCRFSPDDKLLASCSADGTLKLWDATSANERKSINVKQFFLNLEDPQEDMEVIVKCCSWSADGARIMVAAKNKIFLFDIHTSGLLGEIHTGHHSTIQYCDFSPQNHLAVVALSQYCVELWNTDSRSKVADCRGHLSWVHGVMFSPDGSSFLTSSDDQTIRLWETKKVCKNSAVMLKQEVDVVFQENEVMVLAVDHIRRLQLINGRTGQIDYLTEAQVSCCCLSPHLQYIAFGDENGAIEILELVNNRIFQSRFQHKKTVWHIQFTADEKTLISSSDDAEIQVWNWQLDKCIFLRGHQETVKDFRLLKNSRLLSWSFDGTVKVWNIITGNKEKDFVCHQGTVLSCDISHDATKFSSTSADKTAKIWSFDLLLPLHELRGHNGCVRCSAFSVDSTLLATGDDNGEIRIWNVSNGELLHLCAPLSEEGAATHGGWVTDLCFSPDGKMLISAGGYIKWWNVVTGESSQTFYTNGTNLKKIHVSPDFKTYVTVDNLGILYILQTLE

H9c2 = experiment: cells; type: functional, cell-based; conditions: Rattus norvegicus, H9c2, Myocardium;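 also: confirmatory concentration-response retest of ultra-high-throughput screening hits for modulation of myocardial damage; cell death induced by hydrogen peroxide oxidative stress; compound pretreatment for 60 min then peroxide exposure for 2 h; potency is for protecting the cells against peroxide damage rather than for killing them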
[6] = target: T4, Luciferin 4-monooxygenase (Photinus pyralis, UniProt P08659); experiment: inhibition of purified Photinus pyralis luciferase – biochemical, luminescence, dose response (AID 1891)
T4 sequence (P08659 whole entry): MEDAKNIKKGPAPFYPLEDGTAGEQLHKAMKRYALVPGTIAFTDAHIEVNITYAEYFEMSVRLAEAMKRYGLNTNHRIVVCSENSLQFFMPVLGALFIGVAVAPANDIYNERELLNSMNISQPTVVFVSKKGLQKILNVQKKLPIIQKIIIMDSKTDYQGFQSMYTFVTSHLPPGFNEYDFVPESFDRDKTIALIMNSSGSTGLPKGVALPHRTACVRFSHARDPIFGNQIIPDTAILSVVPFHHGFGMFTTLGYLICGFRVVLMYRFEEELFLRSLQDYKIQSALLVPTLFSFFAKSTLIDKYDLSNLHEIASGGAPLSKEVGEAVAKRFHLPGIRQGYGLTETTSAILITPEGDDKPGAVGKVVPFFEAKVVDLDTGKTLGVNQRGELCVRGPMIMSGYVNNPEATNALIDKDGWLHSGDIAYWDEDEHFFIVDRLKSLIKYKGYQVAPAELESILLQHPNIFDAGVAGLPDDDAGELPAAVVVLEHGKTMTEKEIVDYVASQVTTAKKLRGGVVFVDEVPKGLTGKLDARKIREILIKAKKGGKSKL

[7] = target: T5, Neuropeptide Y receptor type 1 (Homo sapiens, UniProt P25929); type: functional;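 also: HEK293 cells with a CNG channel challenged with NPY then isoproterenol; potency as antagonist that reverses NPY suppression of cAMP signal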
T5 sequence (P25929 whole entry): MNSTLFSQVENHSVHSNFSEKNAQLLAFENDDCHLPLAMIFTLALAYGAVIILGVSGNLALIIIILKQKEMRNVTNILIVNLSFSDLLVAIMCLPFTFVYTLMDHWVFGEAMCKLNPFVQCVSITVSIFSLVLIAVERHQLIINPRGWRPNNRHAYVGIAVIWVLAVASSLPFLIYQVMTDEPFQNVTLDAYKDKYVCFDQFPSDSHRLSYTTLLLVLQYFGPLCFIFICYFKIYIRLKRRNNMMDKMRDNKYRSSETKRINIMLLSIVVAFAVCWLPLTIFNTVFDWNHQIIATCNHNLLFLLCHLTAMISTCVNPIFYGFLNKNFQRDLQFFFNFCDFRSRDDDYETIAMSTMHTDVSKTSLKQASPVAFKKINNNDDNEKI

[8] = target: T6, Eukaryotic translation initiation factor 2-alpha kinase 3 (Homo sapiens, UniProt Q9NZJ5); experiment: Counterscreen assay for PERK inhibitors: Dose response cell-based high throughput screening assay to measure inhibition of PERK at 6 hours. [Related pubchem assays: 1522, 1416 ]; type: functional
T6 sequence (Q9NZJ5 whole entry): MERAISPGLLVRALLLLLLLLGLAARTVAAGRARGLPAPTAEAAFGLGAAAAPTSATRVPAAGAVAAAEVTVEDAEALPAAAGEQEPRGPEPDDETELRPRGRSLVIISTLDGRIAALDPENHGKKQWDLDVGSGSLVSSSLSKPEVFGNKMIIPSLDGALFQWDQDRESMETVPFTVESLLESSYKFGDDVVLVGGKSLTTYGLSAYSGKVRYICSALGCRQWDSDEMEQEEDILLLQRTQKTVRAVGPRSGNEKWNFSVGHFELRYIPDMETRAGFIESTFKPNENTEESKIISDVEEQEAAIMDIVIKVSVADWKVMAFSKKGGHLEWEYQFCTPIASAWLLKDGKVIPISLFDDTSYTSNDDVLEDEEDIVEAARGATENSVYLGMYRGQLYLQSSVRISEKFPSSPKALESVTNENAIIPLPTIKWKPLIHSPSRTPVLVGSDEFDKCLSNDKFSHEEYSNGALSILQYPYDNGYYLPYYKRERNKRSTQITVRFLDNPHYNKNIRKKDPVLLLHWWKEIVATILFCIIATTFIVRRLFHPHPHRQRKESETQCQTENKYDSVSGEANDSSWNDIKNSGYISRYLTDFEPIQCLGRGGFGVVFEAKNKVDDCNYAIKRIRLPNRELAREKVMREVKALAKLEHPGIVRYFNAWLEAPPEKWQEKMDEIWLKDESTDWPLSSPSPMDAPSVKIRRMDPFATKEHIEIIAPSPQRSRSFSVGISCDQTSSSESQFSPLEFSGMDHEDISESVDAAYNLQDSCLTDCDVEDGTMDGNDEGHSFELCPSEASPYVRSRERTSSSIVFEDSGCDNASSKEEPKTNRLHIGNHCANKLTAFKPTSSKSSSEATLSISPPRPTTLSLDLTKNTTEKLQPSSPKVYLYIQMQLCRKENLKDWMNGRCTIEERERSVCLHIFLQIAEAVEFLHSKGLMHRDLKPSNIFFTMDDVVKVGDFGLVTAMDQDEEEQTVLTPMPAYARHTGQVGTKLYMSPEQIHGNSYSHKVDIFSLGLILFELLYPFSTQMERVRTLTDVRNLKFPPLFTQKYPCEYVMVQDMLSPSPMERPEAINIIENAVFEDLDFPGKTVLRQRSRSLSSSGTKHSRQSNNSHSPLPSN

[9] = target: T6, Eukaryotic translation initiation factor 2-alpha kinase 3; experiment: Dose response cell-based high-throughput screening assay to measure PERK inhibition. [Related pubchem assays: 1416 ]; type: functional
[10] = target: T7, Polyadenylate-binding protein 1 (Homo sapiens, UniProt P11940); experiment: blockers of PABP interaction with poly(A) – biochemical, fluorescence polarization, […] (AID 2014)
T7 sequence (P11940 whole entry): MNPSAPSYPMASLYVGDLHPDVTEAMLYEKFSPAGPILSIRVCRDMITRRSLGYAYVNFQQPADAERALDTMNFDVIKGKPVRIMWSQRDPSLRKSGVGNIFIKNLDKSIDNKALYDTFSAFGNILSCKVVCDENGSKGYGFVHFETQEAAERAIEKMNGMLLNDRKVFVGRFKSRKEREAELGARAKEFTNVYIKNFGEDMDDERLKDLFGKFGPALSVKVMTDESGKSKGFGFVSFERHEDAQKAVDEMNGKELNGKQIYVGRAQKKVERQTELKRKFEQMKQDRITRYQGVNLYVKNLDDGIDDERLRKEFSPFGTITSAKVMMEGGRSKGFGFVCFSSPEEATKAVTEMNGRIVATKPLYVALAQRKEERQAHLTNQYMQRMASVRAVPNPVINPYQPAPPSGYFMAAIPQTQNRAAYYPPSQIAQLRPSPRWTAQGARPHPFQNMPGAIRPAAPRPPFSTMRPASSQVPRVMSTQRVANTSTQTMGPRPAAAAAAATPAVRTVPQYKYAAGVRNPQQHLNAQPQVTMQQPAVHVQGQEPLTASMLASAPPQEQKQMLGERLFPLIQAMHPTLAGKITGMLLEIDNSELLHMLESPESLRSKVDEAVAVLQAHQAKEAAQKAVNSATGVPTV

[11] = target: T8, Eukaryotic translation initiation factor 4H (Homo sapiens, UniProt Q15056); experiment: inhibitors of translation initiation factor eIF4H – SAR follow-up (AID 435011); type: functional
[12] = target: T8, Eukaryotic translation initiation factor 4H; experiment: eIF4H binding inhibition – biochemical, uHTS, fluorescence polarization, translation initiation inhibitor project, primary screen (AID 2012)
[13] = target: T7, Polyadenylate-binding protein 1; experiment: PABP inhibition in translation initiation, SAR follow-up (AID 435018); type: functional
[14] = target: T9, RNA-binding protein pos-1 (Caenorhabditis elegans, UniProt G5EF15); experiment: disruptors of C. elegans POS-1 RNA interaction – biochemical, fluorescence polarization, dose response (AID 1964);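 also: purified POS-1 fused to maltose binding protein made in E. coli; potency of compounds blocking POS-1 binding to fluorescent RNA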
T9 sequence (G5EF15 whole entry): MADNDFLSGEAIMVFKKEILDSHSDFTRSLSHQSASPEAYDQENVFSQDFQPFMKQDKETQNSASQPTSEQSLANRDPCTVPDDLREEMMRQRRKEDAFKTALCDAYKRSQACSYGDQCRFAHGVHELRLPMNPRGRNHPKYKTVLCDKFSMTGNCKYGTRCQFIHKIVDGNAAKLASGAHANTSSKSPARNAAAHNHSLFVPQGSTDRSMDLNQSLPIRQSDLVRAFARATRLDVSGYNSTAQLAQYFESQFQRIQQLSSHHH

HT-1080 = experiment: HT1080 cell viability loss – fluorescence readout (AID 620); type: functional, cell-based; conditions: Homo sapiens
[15] = target: T4, Luciferin 4-monooxygenase; experiment: Counter Screen for Luciferase-based Assay Positives. [Related pubchem assays: 620, 618, 411 ]
HeLa = experiment: viability loss in HeLa cells – cell-based, 24 h, cherry-picked samples, cytotoxicity control, dose response (AID 504726); type: functional; conditions: Homo sapiens;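 also: potency for cytotoxicity as loss of luminescence signal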

Compound: COc1ccc(-c2cc(-c3ccc(Br)cc3)nc3ncnn23)cc1OC
IC50 [1]: 52.8 µM (active)

EC50 [2]: 15.5 µM (active)
Compound: Cc1cc(C(=O)NNC(=O)CCCCC(=O)NNC(=O)c2cc(C)n[nH]2)[nH]n1

Compound: Cc1ccc(-c2nn3c(C)nnc3c3ccccc23)cc1S(=O)(=O)NC(C)c1ccccc1 (configuration not stated)
IC50 [3]: 10.4 µM (not active)
EC50 [4]: > 112 µM (not active)
IC50 [5]: 7.48 µM (active)
IC50 (H9c2): 35.8 µM (inactive)
EC50 [6]: > 112 µM (not active)
IC50 [7]: 20.3 µM (not active)

EC50 [8]: > 55.7 µM (not active)
EC50 [9]: > 55.7 µM (not active)
Compound: O=C(NNc1nc2ccccc2s1)C1CC1

Compound: Cc1ccc(NC(=O)CN2C(=O)N/C(=C/c3ccccc3OCc3cccc(C(=O)O)c3)C2=O)cc1
IC50 [10]: > 100 µM (inactive)
IC50 [11]: 8.36 µM (active)
IC50 [12]: 11.1 µM (active)
IC50 [13]: > 100 µM (inactive)

EC50 [14]: 137 µM (active)
EC50 [2]: 26.5 µM (active)
Compound: Nc1ccc(S(=O)(=O)NNC(=O)C(=O)NNc2ccccn2)cc1

Compound: Oc1cc(CSc2nnnn2-c2ccccc2)nc(Nc2ccc(F)cc2)n1
IC50 [1]: 38.2 µM (active)

Compound: COC(=O)c1ccc(-c2nc3cc(N)ccc3o2)cc1
EC50 (HT-1080): > 50 µM (not active)
EC50 [15]: 0.2 µM (active)

Compound: NNc1nnc2c3cc(F)ccc3n(Cc3ccccc3)c2n1
AC50 (HeLa): 217 µM (active)

EC50 [8]: > 55.7 µM (not active)
EC50 [9]: > 55.7 µM (not active)
Compound: O=C(CCCC(=O)N/N=C/c1ccccc1C(=O)O)N/N=C/c1ccccc1C(=O)O
